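96-well plates; 48 h exposure; 5 concentrations. Endpoints by linear interpolation between flanking doses. Not reached: highest tested concentration assigned. GI50 marks 50% less growth. TGI denotes the concentration required for complete inhibition of growth.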
Columns and labels:
Test in all cases: inhibition of tumour cell growth, NCI panel, 48 h
[1] = system: SNB-75 CNS
[2] = system: OVCAR-5 ovarian
[3] = system: HCT-15 colon
[4] = system: U251 CNS
[5] = system: MCF7 breast
[6] = system: OVCAR-8 ovarian
[7] = system: BT-549 breast
[8] = system: DU-145 prostate
[9] = system: SK-MEL-5 melanoma
[10] = system: OVCAR-4 ovarian
[11] = system: PC-3 prostate
[12] = system: M14 melanoma
[13] = system: ACHN renal
[14] = system: COLO 205 colon
[15] = system: KM12 colon
[16] = system: TK-10 renal
[17] = system: NCI/ADR-RES ovarian
[18] = system: LOX IMVI melanoma
[19] = system: NCI-H226 lung
[20] = system: K-562 leukemia
[21] = system: SNB-19 CNS
[22] = system: NCI-H460 lung
[23] = system: MDA-MB-231 breast
[24] = system: SF-295 CNS
[25] = system: HS 578T breast
[26] = system: NCI-H522 lung
[27] = system: RPMI-8226 leukemia
[28] = system: HL-60(TB) leukemia
[29] = system: HT29 colon
[30] = system: HCC-2998 colon
[31] = system: HOP-92 NSCLC
[32] = system: SK-MEL-2 melanoma
[33] = system: SW-620 colon
[34] = system: RXF 393 renal
[35] = system: UACC-62 melanoma
[36] = system: HOP-62 NSCLC
[37] = system: MDA-MB-435
[38] = system: 786-0 renal
[39] = system: CAKI-1 renal
[40] = system: UO-31 renal
[41] = system: A498 renal
[42] = system: SK-MEL-28 melanoma
[43] = system: SF-268 CNS
[44] = system: UACC-257 melanoma
[45] = system: EKVX NSCLC
[46] = system: OVCAR-3 ovarian
[47] = system: HCT-116 colon
[48] = system: MALME-3M melanoma
[49] = system: SK-OV-3 ovarian
[50] = system: MOLT-4 leukemia
[51] = system: A549 NSCLC
[52] = system: NCI-H23 lung
[53] = system: SR leukemia
[54] = system: T-47D breast
[55] = system: SN12C renal
[56] = system: SF-539 CNS

Work on `CC(=O)O[C@H]1CCC2(C)C(=CCC3C2CCC2(C)/C(=N/OC(=O)c4ccc(N(CCCl)CCCl)cc4)CCC32)C1` (some centres not stated) yielded a GI50 [1] of 4.47 µM, a TGI [1] of 42.7 µM and a GI50 [2] of over 72.8 µM. It also gave a TGI [2] of over 100 µM, a GI50 [3] of 8.87 µM and a TGI [3] of over 100 µM. It also gave a GI50 [4] of 1.88 µM, a TGI [4] of over 28.8 µM and a GI50 [5] of 12.7 µM. It also gave a TGI [5] of over 100 µM, a GI50 [6] of 4.02 µM and a TGI [6] of over 100 µM. It also gave a GI50 [7] of 8.67 µM, a TGI [7] of over 100 µM and a GI50 [8] of over 89.1 µM. The TGI [8] was over 100 µM, the GI50 [9] was 20.4 µM and the TGI [9] was over 100 µM. It also gave a GI50 [10] of 7.78 µM, a TGI [10] of over 100 µM and a GI50 [11] of 7.99 µM. For the same compound, the TGI [11] was over 100 µM, the GI50 [12] was 20.3 µM and the TGI [12] was over 100 µM. For the same compound, the GI50 [13] was 5.19 µM, the TGI [13] was over 100 µM and the GI50 [14] was over 100 µM. The TGI [14] was over 100 µM, the GI50 [15] was 7.13 µM and the TGI [15] was over 100 µM. For the same compound, the GI50 [16] was 8.71 µM, the TGI [16] was over 73.6 µM and the GI50 [17] was 5.73 µM. It also gave a TGI [17] of over 100 µM, a GI50 [18] of 2.6 µM and a TGI [18] of over 100 µM. The GI50 [19] was over 45.3 µM, the TGI [19] was over 100 µM and the GI50 [20] was 3.9 µM. It also gave a TGI [20] of over 100 µM, a GI50 [21] of 3.16 µM and a TGI [21] of 98.2 µM. The GI50 [22] was 4.65 µM, the TGI [22] was over 100 µM and the GI50 [23] was 4.46 µM. For the same compound, the TGI [23] was over 100 µM, the GI50 [24] was 3.84 µM and the TGI [24] was over 58 µM. It also gave a GI50 [25] of 2.41 µM, a TGI [25] of 13.5 µM and a GI50 [26] of 4.88 µM. The TGI [26] was over 82.8 µM, the GI50 [27] was 5.68 µM and the TGI [27] was over 100 µM. For the same compound, the GI50 [28] was 7.01 µM, the TGI [28] was over 100 µM and the GI50 [29] was 4.92 µM. For the same compound, the TGI [29] was over 100 µM, the GI50 [30] was over 55.5 µM and the TGI [30] was over 100 µM. For the same compound, the GI50 [31] was 13.8 µM, the TGI [31] was over 100 µM and the GI50 [32] was 32.4 µM. The TGI [32] was over 100 µM, the GI50 [33] was over 100 µM and the TGI [33] was over 100 µM. For the same compound, the GI50 [34] was 3.05 µM, the TGI [34] was 45.9 µM and the GI50 [35] was 7.86 µM. It also gave a TGI [35] of over 100 µM, a GI50 [36] of 4.42 µM and a TGI [36] of 24.9 µM. For the same compound, the GI50 [37] was 10.8 µM, the TGI [37] was over 100 µM and the GI50 [38] was 4.21 µM. It also gave a TGI [38] of over 100 µM, a GI50 [39] of 3.88 µM and a TGI [39] of over 100 µM. It also gave a GI50 [40] of 1.99 µM, a TGI [40] of over 20.8 µM and a GI50 [41] of 3.52 µM. It also gave a TGI [41] of over 62.8 µM, a GI50 [42] of over 100 µM and a TGI [42] of over 100 µM. It also gave a GI50 [43] of 2.55 µM, a TGI [43] of 7.71 µM and a GI50 [44] of over 100 µM. It also gave a TGI [44] of over 100 µM, a GI50 [45] of 8.78 µM and a TGI [45] of over 100 µM. The GI50 [46] was 9.84 µM, the TGI [46] was over 100 µM and the GI50 [47] was 2.34 µM. For the same compound, the TGI [47] was over 100 µM, the GI50 [48] was over 65.4 µM and the TGI [48] was over 100 µM. It also gave a GI50 [49] of over 100 µM, a TGI [49] of over 100 µM and a GI50 [50] of 4.91 µM. It also gave a TGI [50] of over 100 µM, a GI50 [51] of 2.45 µM and a TGI [51] of 8.37 µM. For the same compound, the GI50 [52] was 6 µM, the TGI [52] was over 100 µM and the GI50 [53] was 1.4 µM. For the same compound, the TGI [53] was 5.98 µM, the GI50 [54] was 4.02 µM and the TGI [54] was over 100 µM. It also gave a GI50 [55] of 5.48 µM, a TGI [55] of over 100 µM and a GI50 [56] of 6.89 µM. For the same compound, the TGI [56] was over 100 µM.

— PubChem BioAssay (NCI)
